# Data: US6372488B1, “AMPA-binding human GluR4 receptors” (NPS Allelix Corp., priority 1992, dated 2002)
# Target: T1, human GluR4B receptor (Homo sapiens, UniProt P48058)
# T1 construct: transported to the cell surface in mature form, lacking the signal peptide and consisting of 881 amino acids; expressed in transfected cells; host or cells: COS-1 cells (ATCC CRL 1650), transient, plasmid pcDNAI/humGluR4B
# Assay: ligand binding assay (NMDA), membranes of human GluR4B receptor-producing COS cells
# Details: COS cell membrane preparation
# T1 sequence (P48058 21-902): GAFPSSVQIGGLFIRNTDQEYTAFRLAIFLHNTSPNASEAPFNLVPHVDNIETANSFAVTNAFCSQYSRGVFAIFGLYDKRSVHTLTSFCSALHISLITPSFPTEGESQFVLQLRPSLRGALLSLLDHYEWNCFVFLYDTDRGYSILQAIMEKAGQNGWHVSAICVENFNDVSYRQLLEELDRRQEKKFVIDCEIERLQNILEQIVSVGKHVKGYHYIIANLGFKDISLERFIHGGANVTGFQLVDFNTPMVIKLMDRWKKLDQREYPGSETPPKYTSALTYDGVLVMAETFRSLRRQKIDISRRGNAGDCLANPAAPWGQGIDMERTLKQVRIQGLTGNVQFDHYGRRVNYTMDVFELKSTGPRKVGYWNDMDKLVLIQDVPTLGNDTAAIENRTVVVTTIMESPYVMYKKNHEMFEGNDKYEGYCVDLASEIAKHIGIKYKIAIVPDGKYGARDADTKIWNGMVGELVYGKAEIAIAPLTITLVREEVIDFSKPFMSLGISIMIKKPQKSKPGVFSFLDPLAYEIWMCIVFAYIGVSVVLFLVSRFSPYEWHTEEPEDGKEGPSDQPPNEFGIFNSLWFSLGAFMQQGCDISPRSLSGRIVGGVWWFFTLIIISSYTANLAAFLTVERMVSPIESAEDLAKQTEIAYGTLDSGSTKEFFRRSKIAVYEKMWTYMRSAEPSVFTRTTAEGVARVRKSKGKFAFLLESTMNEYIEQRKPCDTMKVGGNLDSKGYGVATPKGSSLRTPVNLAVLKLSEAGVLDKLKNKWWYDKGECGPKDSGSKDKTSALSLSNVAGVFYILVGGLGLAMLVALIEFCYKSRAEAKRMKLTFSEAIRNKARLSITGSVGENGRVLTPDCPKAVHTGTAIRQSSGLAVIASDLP
smiles,measurement,value
"CN[C@H](CC(=O)O)C(=O)O [NMDA, N-methyl-D-aspartate]",binding of NMDA to human GluR4B receptor,little or no demonstrable binding
